For one series, the system named is PHH 2D sandwich cultures. The following applies: cited from earlier work.
For another series, the system named is clinical DILI in man. Particulars: cited from earlier work.
Series [1] has as its system primary human hepatocytes (PHH) 3D spheroids.
The conditions of series [2]: cited from earlier work.
For series [3] the following is noted: ref DrugBank and Prescribers' Digital Reference database; cited from earlier work.
The mark [4] stands for this setting: PHH 2D sandwich cultures, 100x Cmax, ref Xu 2008.
The mark [5] stands for this setting: clinical DILI classification in man (POS/NEG).
Where [6] appears, read: clinical DILI classification used in this study, Supplementary Table 2, ref Chen et al., 2011, Guo et al., 2005, O'Brien et al., 2006, Sakatis et al., 2012, Suzuki et al., 2010, Xu et al., 2008.
Where [7] appears, read: clinical DILI classification, Supplementary Table 1, ref Chen et al., 2011, Guo et al., 2005, O'Brien et al., 2006, Sakatis et al., 2012, Suzuki et al., 2010, Xu et al., 2008.
Setting [8] is: reported pattern of liver damage, Supplementary Table 2, ref literature.
Where [9] appears, read: therapeutic total cmax, ref PMID.
Setting [10] is: FDA drug labeling DILI score, ref Chen et al., 2011.
Where [11] appears, read: clinical DILI classification, ref Xu et al. (2008).

Each structure is given as a SMILES string. Where two headings read alike, the source gives them in different places.

Broadly, the Cmax is the peak of the concentration-time curve. On to `Nc1ccc(/N=N/c2ccccc2)c(N)n1` [Phenazopyridine], for which the “2Dsw (Xu 2008) 100x” value with PHH 2D sandwich cultures (setting [4]) was “Negative”. Moreover, the DILI in vivo result in the series on clinical DILI in man (setting [5]) and in the series with clinical DILI in man (setting [7]) was “POS” throughout. For the same molecule, the Classified as result with clinical DILI in man (setting [6]) is “POS”. The “Type of DILI” value in the series with clinical DILI in man (setting [8]) is reported as “Hepatocellular injury”. The “Chemically defined spheroids (this study) 20x” value (“Chemically defined spheroids” below) in series [1] is reported as “Negative”. The Cmax in series [2] (setting [9]) is 110 nM. For the same molecule, the “Extent of hepatic metabolism” value in series [3] is “Moderate”.

Regarding `Nc1cc(-c2ccncc2)c[nH]c1=O` [Amrinone], in the series on PHH 2D sandwich cultures (setting [4]), the “2Dsw (Xu 2008) 100x” value is given as “Negative”. Also, in the series with clinical DILI in man (setting [10]), the “FDA (0-8)” value is reported as 5. Moreover, the DILI in vivo result in the series with clinical DILI in man (setting [5]) and with clinical DILI in man (setting [7]) was “POS” each time. In addition, in the series with clinical DILI in man (setting [6]), the Classified as entry was “POS”. In addition, the “Xu et al. (2008)” value with clinical DILI in man (setting [11]) is “Positive”. Moreover, the “Type of DILI” value with clinical DILI in man (setting [8]) is listed as “Hepatocellular injury”. The “Chemically defined spheroids” value in series [1] was “Negative”. The Cmax in series [2] (setting [9]) is 13800 nM. For the same molecule, in series [3], the “Extent of hepatic metabolism” value is “Extensive”.

Turning to `O=C(OCC(O)CO)c1ccccc1Nc1ccnc2cc(Cl)ccc12` (stereo not drawn) [Glafenine], the “2Dsw (Xu 2008) 100x” value in the series on PHH 2D sandwich cultures (setting [4]) is “Negative”. In addition, in the series on clinical DILI in man (in vivo), the Classified as entry is “POS”, the “Clinical DILI class (panel heading of Figure 4)” value (from here on “Clinical DILI class”) is “Severe DILI”, the DILI in vivo result is listed as “POS” and the “FDA (0-8)” value is recorded as “Withdrawn”. Further, in the series on clinical DILI in man (in vivo), the “FDA (Severity)” value is recorded as “most DILI concern”, the “Sakatis et al. (2012)” value is recorded as “Hepatotoxic”, the “Type of DILI” value is reported as “Hepatocellular injury” and the “Xu et al. (2008)” value is “Positive”. Besides, the “Chemically defined spheroids” value in series [1] is recorded as “Negative”. Moreover, in series [2] (setting [9]), the Cmax was 1880 nM. Further, in series [3], the “Extent of hepatic metabolism” value is “Extensive”.

Regarding `CC(C)COCC(CN(Cc1ccccc1)c1ccccc1)N1CCCC1` (stereo not drawn) [Bepridil], in the series on PHH 2D sandwich cultures (setting [4]), the “2Dsw (Xu 2008) 100x” value was “Positive”. Also, the DILI in vivo result with clinical DILI in man (setting [5]) and in the series on clinical DILI in man (setting [7]) was “POS” each time. Also, the Classified as result with clinical DILI in man (setting [6]) is on record as “POS”. For the same molecule, the “Type of DILI” value in the series on clinical DILI in man (setting [8]) is listed as “Hepatocellular injury”. Moreover, in series [1], the “Chemically defined spheroids” value was “Positive”. Moreover, the Cmax in series [2] (setting [9]) was 2000 nM. Further, the “Extent of hepatic metabolism” value in series [3] is given as “Extensive”.

`CN(C)C(=O)Oc1cc(OC(=O)N(C)C)cc(C(O)CNC(C)(C)C)c1` (stereo not drawn) [Bambuterol]: the “2Dsw (Xu 2008) 100x” value in the series on PHH 2D sandwich cultures (setting [4]) is “Negative”. Also, the DILI in vivo result in the series with clinical DILI in man (setting [5]) and with clinical DILI in man (setting [7]) was “NEG” throughout. In addition, the Classified as result with clinical DILI in man (setting [6]) is “NEG”. The “Type of DILI” value in the series with clinical DILI in man (setting [8]) is given as “Non-hepatotoxic”. Also, the “Chemically defined spheroids” value in series [1] is “Negative”. The Cmax in series [2] (setting [9]) is 10 nM. Moreover, in series [3], the “Extent of hepatic metabolism” value was “Extensive”.

Regarding `C[C@H](CCC(=O)O)[C@H]1CC[C@H]2[C@@H]3[C@H](O)C[C@@H]4C[C@H](O)CC[C@]4(C)[C@H]3CC[C@]12C` [Chenodiol], the “2Dsw (Xu 2008) 100x” value with PHH 2D sandwich cultures (setting [4]) is reported as “Positive”. In addition, the DILI in vivo entry with clinical DILI in man (setting [5]) and in the series on clinical DILI in man (setting [7]) was “POS” each time. The Classified as result in the series on clinical DILI in man (setting [6]) is on record as “POS”. The “Type of DILI” value in the series on clinical DILI in man (setting [8]) is reported as “Cholestatic injury”. In series [1], the “Chemically defined spheroids” value is recorded as “Positive”. For the same molecule, the Cmax in series [2] (setting [9]) is 8000 nM. Besides, in series [3], the “Extent of hepatic metabolism” value is “Extensive”.

Take `Cc1cc(C2CCCCC2)n(O)c(=O)c1` [Ciclopirox]: the “2Dsw (Xu 2008) 100x” value in the series with PHH 2D sandwich cultures (setting [4]) is given as “Negative”. Further, the DILI in vivo result with clinical DILI in man (setting [5]) and with clinical DILI in man (setting [7]) was “NEG” throughout. Besides, the Classified as result with clinical DILI in man (setting [6]) is recorded as “NEG”. The “Type of DILI” value in the series with clinical DILI in man (setting [8]) is reported as “Non-hepatotoxic”. Also, in series [1], the “Chemically defined spheroids” value was “Negative”. For the same molecule, the Cmax in series [2] (setting [9]) is 373 nM. Also, the “Extent of hepatic metabolism” value in series [3] is on record as “Extensive”.

As to `O=C1NC(=O)C(c2ccccc2)(c2ccccc2)N1` [Phenytoin], in the series on PHH 2D sandwich cultures (setting [4]), the “2Dsw (Xu 2008) 100x” value is “Positive”. In the series with clinical DILI in man (in vivo), the Classified as entry is recorded as “POS”, the “Clinical DILI class” value is “Severe DILI”, the DILI in vivo entry is given as “POS” and the “FDA (0-8)” value was 8. Besides, in the series with clinical DILI in man (in vivo), the “FDA (Severity)” value is on record as “less DILI concern”, the “Guo et al. (2005)” value is listed as 2, the “Sakatis et al. (2012)” value is on record as “Hepatotoxic” and the “Suzuki et al. (2010)” value is recorded as 2. For the same molecule, in the series with clinical DILI in man (in vivo), the “Type of DILI” value is recorded as “Hepatocellular injury or Mixed hepatitis” and the “Xu et al. (2008)” value is given as “Positive”. The “Chemically defined spheroids” value in series [1] is “Negative”. In addition, the Cmax in series [2] (setting [9]) is 21700 nM. Moreover, the “Extent of hepatic metabolism” value in series [3] was “Extensive”.

As to `NCC1(CC(=O)O)CCCCC1` [Gabapentin], the “2Dsw (Xu 2008) 100x” value in the series on PHH 2D sandwich cultures is “Negative”. Besides, the “Suzuki et al. (2010)” value in the series on clinical DILI in man (DILI classification score, ref Suzuki et al. (2010)) is reported as 1. Further, the “FDA (0-8)” value in the series with clinical DILI in man (setting [10]) was 3. Further, the DILI in vivo entry with clinical DILI in man (setting [5]) and in the series with clinical DILI in man (setting [7]) was “NEG” each time. Moreover, the Classified as entry in the series on clinical DILI in man (setting [6]) is “NEG”. Further, in the series with clinical DILI in man (setting [11]), the “Xu et al. (2008)” value is “Negative”. Moreover, the “Type of DILI” value in the series with clinical DILI in man (setting [8]) was “Non-hepatotoxic”. In series [1], the “Chemically defined spheroids” value is “Negative”. Further, in series [2] (human, in vivo), the highest concentration (Cmax) was 14400 nM. Also, the “Extent of hepatic metabolism” value in series [3] is “Minimal”.

Turning to `CC[C@@H]1C(=O)OC[C@@H]1Cc1cncn1C` [Pilocarpine], the “2Dsw (Xu 2008) 100x” value in the series on PHH 2D sandwich cultures (setting [4]) is “Negative”. Also, the “FDA (0-8)” value in the series with clinical DILI in man (setting [10]) is 3. Moreover, the DILI in vivo entry in the series with clinical DILI in man (setting [5]) and in the series with clinical DILI in man (setting [7]) was “NEG” throughout. In the series with clinical DILI in man (setting [6]), the Classified as result was “NEG”. In the series with clinical DILI in man (setting [11]), the “Xu et al. (2008)” value is “Negative”. In the series with clinical DILI in man (setting [8]), the “Type of DILI” value is reported as “Non-hepatotoxic”. Also, the “Chemically defined spheroids” value in series [1] is “Negative”. Moreover, the highest concentration (Cmax) in series [2] (setting [9]) was 84 nM. Also, the “Extent of hepatic metabolism” value in series [3] is listed as “Minimal”.

Take `NCCc1ccc(O)c(O)c1` [Dopamine]: the “2Dsw (Xu 2008) 100x” value in the series on PHH 2D sandwich cultures (setting [4]) is “Negative”. Also, in the series with clinical DILI in man (in vivo), the Classified as result was “NEG”, the “Clinical DILI class” value is “DILI negative”, the DILI in vivo result is reported as “NEG” and the “FDA (0-8)” value was 0. Besides, in the series on clinical DILI in man (in vivo), the “Type of DILI” value was “Non-hepatotoxic” and the “Xu et al. (2008)” value is reported as “Negative”. Moreover, the “Chemically defined spheroids” value in series [1] is on record as “Negative”. Moreover, the Cmax in series [2] (setting [9]) is 121 nM. Further, the “Extent of hepatic metabolism” value in series [3] is listed as “Extensive”.

As to `CC(C)NCC(O)c1ccc(O)c(O)c1` (stereo not drawn) [Isoproterenol], the “2Dsw (Xu 2008) 100x” value in the series on PHH 2D sandwich cultures (setting [4]) is reported as “Negative”. In the series on clinical DILI in man (in vivo), the Classified as entry is on record as “NEG”, the “Clinical DILI class” value was “DILI negative”, the DILI in vivo result is listed as “NEG” and the “FDA (0-8)” value was 0. In the series with clinical DILI in man (in vivo), the “O'Brien et al. (2003)” value is “Non-toxic”, the “Type of DILI” value is “Non-hepatotoxic” and the “Xu et al. (2008)” value is reported as “Negative”. For the same molecule, in series [1], the “Chemically defined spheroids” value is listed as “Negative”. For the same molecule, in series [2] (setting [9]), the Cmax was 2020 nM. Besides, in series [3], the “Extent of hepatic metabolism” value was “Moderate”.

Turning to `CC(C)(Oc1ccc(CCNC(=O)c2ccc(Cl)cc2)cc1)C(=O)O` [Bezafibrate], the “2Dsw (Xu 2008) 100x” value in the series with PHH 2D sandwich cultures (setting [4]) was “Negative”. Moreover, in the series on clinical DILI in man (in vivo), the Classified as result is “NEG”, the “Clinical DILI class” value is “DILI negative”, the DILI in vivo entry is reported as “NEG” and the “Type of DILI” value is given as “Non-hepatotoxic”. In addition, the “Chemically defined spheroids” value in series [1] is “Negative”. For the same molecule, the highest concentration (Cmax) in series [2] (setting [9]) is 16600 nM. Also, the “Extent of hepatic metabolism” value in series [3] is reported as “Extensive”.

These data come from article PMC5974779, “Prediction of Drug-Induced Hepatotoxicity Using Long-Term Stable Primary Hepatic 3D Spheroid Cultures in Chemically Defined Conditions” (Toxicological Sciences, 2018).
